Source: ChEMBL document CHEMBL1201862, “PubChem BioAssay data set” (2004)
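Each compound was tested at five concentrations against cells in 96-well plates for 48 hours. The concentration for 50% growth inhibition is given as GI50.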 Active and inactive are the calls of the source. Cut-off read from the data, not from the text of the source: active = GI50 up to about 1.1 µM and inactive = higher.

Assays:
Assay in all cases: NCI anticancer screen, dose series, 48 h
HCT-15 = system: HCT-15
HT-29 = system: HT-29
SF-539 = system: SF-539
SN12C = system: SN12C
UACC-257 = system: UACC-257
SK-MEL-2 = system: SK-MEL-2
MDA-MB-435 = system: MDA-MB-435
PC-3 = system: PC-3
A498 = system: A498
SNB-19 = system: SNB-19
OVCAR-8 = system: OVCAR-8
Malme-3M = system: Malme-3M
CCRF-CEM = system: CCRF-CEM
M14 = system: M14
NCI-H226 = system: NCI-H226
UACC-62 = system: UACC-62
EKVX = system: EKVX
RXF 393 = system: RXF 393
CAKI-1 = system: CAKI-1
COLO 205 = system: COLO 205

For `CCOP(=O)(OCC)C1=C(c2ccccc2)OC(N)=C(C#N)C1c1ccc(Cl)cc1` (stereo not drawn), the GI50 (HCT-15) was over 100 µM, the GI50 (HT-29) was > 100 µM (inactive) and the GI50 (SF-539) was 66.1 µM (inactive). The GI50 (SN12C) was > 100 µM (inactive), the GI50 (UACC-257) was > 100 µM (inactive) and the GI50 (SK-MEL-2) was > 100 µM (inactive). The GI50 (MDA-MB-435) was > 100 µM (inactive), the GI50 (PC-3) was > 100 µM (inactive) and the GI50 (A498) was > 100 µM (inactive). The GI50 (SNB-19) was > 100 µM (inactive), the GI50 (OVCAR-8) was > 100 µM (inactive) and the GI50 (Malme-3M) was > 100 µM (inactive). For the same compound, the GI50 (CCRF-CEM) was 30.1 µM (inactive), the GI50 (M14) was > 100 µM (inactive) and the GI50 (NCI-H226) was > 100 µM (inactive). The GI50 (UACC-62) was > 100 µM (inactive), the GI50 (EKVX) was > 100 µM (inactive) and the GI50 (RXF 393) was > 100 µM (inactive). The GI50 (CAKI-1) was > 100 µM (inactive) and the GI50 (COLO 205) was > 100 µM (inactive).
For `CN1C(=O)CC2(C)c3cc(O)ccc3N(C)C12` (stereo not drawn), the GI50 (HCT-15) was 36 µM, the GI50 (HT-29) was 30.5 µM (inactive) and the GI50 (SF-539) was 64.1 µM (inactive). For the same compound, the GI50 (SN12C) was 15.5 µM (inactive), the GI50 (UACC-257) was > 68.2 µM (inactive) and the GI50 (SK-MEL-2) was 41.5 µM (inactive). The GI50 (MDA-MB-435) was 13.6 µM (inactive), the GI50 (PC-3) was 41.5 µM (inactive) and the GI50 (A498) was 43 µM (inactive). For the same compound, the GI50 (SNB-19) was 46.9 µM (inactive), the GI50 (OVCAR-8) was 30.8 µM (inactive) and the GI50 (Malme-3M) was 54.5 µM (inactive). The GI50 (CCRF-CEM) was 13.2 µM (inactive), the GI50 (M14) was 27.2 µM (inactive) and the GI50 (NCI-H226) was 40.6 µM (inactive). The GI50 (UACC-62) was 20.1 µM (inactive), the GI50 (EKVX) was 37.8 µM (inactive) and the GI50 (RXF 393) was 29.4 µM (inactive). For the same compound, the GI50 (CAKI-1) was 23.8 µM (inactive) and the GI50 (COLO 205) was 36.8 µM (inactive).
`CC[C@@]1(O)C(=O)OCc2c1cc1n(c2=O)Cc2cc3cc4c(cc3nc2-1)OCO4` was tested, and the GI50 (HCT-15) was 0.0181 µM, the GI50 (HT-29) was 0.00472 µM (active) and the GI50 (SF-539) was < 0.001 µM (active). The GI50 (SN12C) was < 0.001 µM (active), the GI50 (UACC-257) was 0.054 µM (active) and the GI50 (SK-MEL-2) was 0.0224 µM (active). For the same compound, the GI50 (MDA-MB-435) was 0.0149 µM (active), the GI50 (PC-3) was 0.00746 µM (active) and the GI50 (A498) was < 0.0143 µM (active). The GI50 (SNB-19) was 0.00152 µM (active), the GI50 (OVCAR-8) was 0.00189 µM (active) and the GI50 (Malme-3M) was 0.00497 µM (active). For the same compound, the GI50 (CCRF-CEM) was < 0.001 µM (active), the GI50 (M14) was < 0.001 µM (active) and the GI50 (NCI-H226) was 0.00168 µM (active). The GI50 (UACC-62) was < 0.001 µM (active), the GI50 (EKVX) was 0.0881 µM (active) and the GI50 (RXF 393) was 0.00221 µM (active). The GI50 (CAKI-1) was 0.00173 µM (active) and the GI50 (COLO 205) was 0.0439 µM (active).
For `COc1ccccc1CCN1CCN(CCCc2ccccc2)CC1`, the GI50 (HCT-15) was 42.6 µM, the GI50 (HT-29) was 28.8 µM (inactive) and the GI50 (SF-539) was > 100 µM (inactive). For the same compound, the GI50 (SN12C) was 83.9 µM (inactive), the GI50 (UACC-257) was 60.4 µM (inactive) and the GI50 (SK-MEL-2) was > 100 µM (inactive). For the same compound, the GI50 (MDA-MB-435) was 85.5 µM (inactive), the GI50 (PC-3) was > 100 µM (inactive) and the GI50 (A498) was 70.8 µM (inactive). For the same compound, the GI50 (SNB-19) was > 100 µM (inactive), the GI50 (OVCAR-8) was > 100 µM (inactive) and the GI50 (Malme-3M) was > 100 µM (inactive). For the same compound, the GI50 (CCRF-CEM) was > 100 µM (inactive), the GI50 (M14) was 24.2 µM (inactive) and the GI50 (NCI-H226) was 72.9 µM (inactive). The GI50 (UACC-62) was > 100 µM (inactive), the GI50 (EKVX) was > 100 µM (inactive) and the GI50 (RXF 393) was 59.8 µM (inactive). For the same compound, the GI50 (CAKI-1) was 91 µM (inactive) and the GI50 (COLO 205) was 28.5 µM (inactive).
`Nc1cc2[nH]cnc2c(=O)[nH]1` [DEZAGUANINE] was tested, and the GI50 (HCT-15) was 19.3 µM, the GI50 (HT-29) was 21.5 µM (inactive) and the GI50 (SF-539) was 16 µM (inactive). The GI50 (SN12C) was 14.6 µM (inactive), the GI50 (UACC-257) was 109 µM (inactive) and the GI50 (SK-MEL-2) was 5.96 µM (inactive). The GI50 (MDA-MB-435) was 14.3 µM (inactive), the GI50 (PC-3) was 9.29 µM (inactive) and the GI50 (A498) was 63.5 µM (inactive). For the same compound, the GI50 (SNB-19) was > 264 µM (inactive), the GI50 (OVCAR-8) was 40.2 µM (inactive) and the GI50 (Malme-3M) was 47.6 µM (inactive). The GI50 (CCRF-CEM) was 7.93 µM (inactive), the GI50 (M14) was 45.6 µM (inactive) and the GI50 (NCI-H226) was 77.1 µM (inactive). For the same compound, the GI50 (UACC-62) was 12.9 µM (inactive), the GI50 (EKVX) was 56.2 µM (inactive) and the GI50 (RXF 393) was 41.7 µM (inactive). The GI50 (CAKI-1) was 11 µM (inactive) and the GI50 (COLO 205) was 21.9 µM (inactive).
In the case of `CC(=O)Nc1ccc2c3c(cc(O)c2c1)N(C(=O)CCCC(=O)Nc1ccc2c4c(cc(O)c2c1)N(C(=O)OC(C)(C)C)CC4CCl)CC3CCl` (stereo not drawn), the GI50 (HCT-15) is reported as over 50 µM, the GI50 (HT-29) is reported as 1.19 µM (inactive) and the GI50 (SF-539) is reported as 1.42 µM (inactive). The GI50 (SN12C) was 1.57 µM (inactive), the GI50 (UACC-257) was 1.04 µM (active) and the GI50 (SK-MEL-2) was 0.955 µM (active). For the same compound, the GI50 (MDA-MB-435) was 0.938 µM (active), the GI50 (PC-3) was 1.27 µM (inactive) and the GI50 (A498) was 1.02 µM (active). For the same compound, the GI50 (SNB-19) was 1.24 µM (inactive), the GI50 (OVCAR-8) was 1.94 µM (inactive) and the GI50 (Malme-3M) was 0.78 µM (active). The GI50 (CCRF-CEM) was 0.108 µM (active), the GI50 (M14) was 3.22 µM (inactive) and the GI50 (UACC-62) was 0.998 µM (active). For the same compound, the GI50 (EKVX) was 5.24 µM (inactive), the GI50 (RXF 393) was 2.58 µM (inactive) and the GI50 (CAKI-1) was > 50 µM (inactive). The GI50 (COLO 205) was 1.22 µM (inactive).
`N=C(N)Nc1ccc(CC(N)C(=O)NCC(=O)C(CC(=O)O)c2ncc(NC(=O)C(F)(F)F)o2)cc1` (stereo not drawn) was tested, and the GI50 (HCT-15) was over 25 µM, the GI50 (HT-29) was > 25 µM (inactive) and the GI50 (SF-539) was > 25 µM (inactive). For the same compound, the GI50 (SN12C) was 9.27 µM (inactive), the GI50 (UACC-257) was > 25 µM (inactive) and the GI50 (SK-MEL-2) was > 25 µM (inactive). For the same compound, the GI50 (MDA-MB-435) was > 25 µM (inactive), the GI50 (PC-3) was > 25 µM (inactive) and the GI50 (A498) was > 25 µM (inactive). For the same compound, the GI50 (OVCAR-8) was > 25 µM (inactive), the GI50 (Malme-3M) was > 25 µM (inactive) and the GI50 (CCRF-CEM) was > 25 µM (inactive). The GI50 (M14) was > 25 µM (inactive), the GI50 (NCI-H226) was > 25 µM (inactive) and the GI50 (UACC-62) was > 25 µM (inactive). The GI50 (EKVX) was > 25 µM (inactive), the GI50 (RXF 393) was > 25 µM (inactive) and the GI50 (CAKI-1) was > 25 µM (inactive). The GI50 (COLO 205) was > 25 µM (inactive).
